According to patent US9447136B2, “Semisynthetic derivatives of Nystatin A1” (BLIRT S.A., priority 2012, dated 2016):
Read-outs that look alike come from different tables or passages of the source.

Columns and labels:
[1] = tested on: Saccharomyces cerevisiae ATCC 9763; experiment: Antifungal activity in vitro, serial dilution in RPMI 1640; assay type: cell-based; settings: Table 2A; RPMI 1640, pH 7.0; A531 at most 20% of control
Outline: (§1)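 In buffered RPMI 1640 at pH 7.0, fungi were exposed to serially diluted compound (M27-A2 standard) and turbidity was recorded at 531 nm. Values relative to control: IC50 at 50%, MIC as lowest concentration at ≤20%.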

[2] = tested on: Candida tropicalis KKP 334; experiment: as above; assay type: cell-based; settings: Table 2A; RPMI 1640, pH 7.0
Outline: as §1

[3] = tested on: Candida lusitaniae DSM 70102; experiment: as above; assay type: cell-based; settings: Table 2A; RPMI 1640, pH 7.0
Outline: as §1

[4] = tested on: Candida albicans ATCC 10231; experiment: as above; assay type: cell-based; settings: Table 2A, RPMI 1640, pH 7.0; for Antifungal activity Candida albicans ATCC 10231 IC50: A531 50% of control; for Antifungal activity Candida albicans ATCC 10231 MIC: A531 at most 20% of control
Outline: as §1

[5] = tested on: Candida glabrata DSM 11226; experiment: as above; assay type: cell-based; settings: Table 2A; RPMI 1640, pH 7.0
Outline: as §1

Candida krusei DSM 6128 = experiment: as above; assay type: cell-based; settings: Table 2A; RPMI 1640, pH 7.0
Outline: as §1

HepG2 = experiment: Cytotoxic activity against mammalian cells in tissue culture (MTT); assay type: cell-based, human
Protocol: (§2) For examinations were used selected cell lines: CCRF-CEM—human acute lymphoblastic leukemia; HepG2—human malignant hepatoma; LLC-PK1—epithelial cell of pig kidney; All lines were from ATCC collection.
(§3) The study are conducted using described below methods of culturing and determination of cytotoxic activity.
(§4) CCRF-CEM cells were cultured in medium RPMI 1640+10% fetal bovine serum (FBS), LLC-PK1 cells in medium Medium 199+3% FBS, HepG2 cells in medium MEM+10% FBS. All media contained 100 μg/ml of penicillin G and streptomycin. 24-wells microplates containing appropriate medium were inoculated with the cells in amount of 1.2×10^4 cells/well and allowed to stand overnight. Next, tested compounds as solution in dimethylsulfoxide (DMSO) were added in volume of 10 μl (serial 2× dilutions). To control well 10 μl of DMSO was added. Microplates with cell suspensions were incubated for 120 h at temperature 37° C. at atmosphere of 95%/5% CO2. After incubation, to all wells 200 μl of solution of 3-(4,5-dimethylthiazole-2-yl)-2,5-diphenylotetrazole bromide (MTT) in PBS (4 mg/ml) was added and plates were further incubated for 4 h at 37° C. Next, to dissolve crystals of formazane 1 ml of DMSO was added and absorption of solutions was measured at the wavelength λ=540 nm (A540), using a microplates reader (Victor^3, Perkin-Wallac). […] From these graphs IC50 values were read, that is concentration of tested compound in the presence at which A540 value is half of A540 value measured in the control sample.

CCRF-CEM = experiment: as above; assay type: cell-based, human
Protocol: as §2, §3, §4

LLC-PK1 = experiment: as above; assay type: cell-based, pig
Protocol: as §2, §3, §4

Human erythrocytes = experiment: Hemotoxicity (hemolytic activity); settings: for EH10: concentration causing 10% of hemolysis
Outline: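 Human erythrocytes in saline (2×10^7/ml) were incubated with serially diluted compound at 37 °C for 30 min, then centrifuged. Released hemoglobin was read as A540 against 0.1% Triton X-100 as full hemolysis. EH50 is the interpolated concentration giving 50% of the control A540.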

Row | Molecule | Antifungal activity Saccharomyces cerevisiae ATCC 9763 MIC [1] [µg/mL] | Antifungal activity Candida tropicalis KKP 334 MIC [2] [µg/mL] | Antifungal activity Candida lusitaniae DSM 70102 MIC [3] [µg/mL] | Antifungal activity Candida albicans ATCC 10231 IC50 [4] [µg/mL] | Antifungal activity Candida albicans ATCC 10231 MIC [4] [µg/mL] | Antifungal activity Candida glabrata DSM 11226 MIC [5] [µg/mL] | Antifungal activity Candida krusei DSM 6128 MIC (Candida krusei DSM 6128) [µg/mL] | Cytotoxicity IC50 HepG2 (HepG2; HepG2, 120 h, MTT) [µg/mL] | Cytotoxicity IC50 CCRF-CEM (CCRF-CEM; CCRF-CEM, 120 h, MTT) [µg/mL] | Cytotoxicity IC50 LLC-PK1 (LLC-PK1; LLC-PK1, 120 h, MTT) [µg/mL] | % of hemolysis at the concentration 60 μg ml^−1 (Human erythrocytes) [%] | EH10 (Human erythrocytes; human erythrocytes) [µg/mL] | Hemotoxicity BEH50 (Human erythrocytes; human erythrocytes, 37° C., 30 minutes, concentration causing 50% hemolysis, maximum concentration 300 μg/ml) [µg/mL] | Cytotoxicity IC50 HepG2 (HepG2) [µg/mL] | Cytotoxicity IC50 CCRF-CEM (CCRF-CEM) [µg/mL] | Cytotoxicity IC50 LLC-PK1 (LLC-PK1) [µg/mL]
1 | CCN(CC)CCNC(=S)NC1C(O)C(C)OC(O[C@H]2/C=C/C=C/C=C/C=C/CC/C=C/C=C/[C@H](C)[C@@H](O)[C@@H](C)[C@H](C)OC(=O)C[C@H](O)C[C@H](O)C[C@H](O)CC[C@@H](O)[C@H](O)CC3(O)C[C@H](O)[C@@H](C(=O)O)[C@H](C2)O3)C1O (stereo partly shown) [Compound N14, N-{3-[2-(N,N-diethylamino)ethyl]thioureidyl}nystatin A1] | 4 | 8 | 4 | 3.21 | 8 | 16 | 16 | >100 | >100 | >100 |  |  |  |  |  | 
2 | N-[3-(piperidin-1-yl)propionyl]nystatin A1 [Compound N44] | 4 | 4 |  | 2.95 | 4 | 8 | 8 | >100 | >100 | >100 | 0.95 | 209.39 |  |  |  | 
3 | CC1OC(O[C@H]2/C=C/C=C/C=C/C=C/CC/C=C/C=C/[C@H](C)[C@@H](O)[C@@H](C)[C@H](C)OC(=O)C[C@H](O)C[C@H](O)C[C@H](O)CC[C@@H](O)[C@H](O)CC3(O)C[C@H](O)[C@@H](C(=O)O)[C@H](C2)O3)C(O)C(NC(=S)NCCCN(C)C)C1O (stereo partly shown) [Compound N17, N-{3-[3-(N,N-dimethylamino)propyl]thioureidyl}nystatin A1] | 4 | 4 | 4 | 2.92 | 4 | 8 | 8 | >100 | >100 | >100 |  | 156.33 |  |  |  | 
4 | CC1OC(O[C@H]2/C=C/C=C/C=C/C=C/CC/C=C/C=C/[C@H](C)[C@@H](O)[C@@H](C)[C@H](C)OC(=O)C[C@H](O)C[C@H](O)C[C@H](O)CC[C@@H](O)[C@H](O)CC3(O)C[C@H](O)[C@@H](C(=O)O)[C@H](C2)O3)C(O)C(NCc2ccccc2)C1O (stereo partly shown) [Compound N21, N-benzylnystatin A1] | 2 | 4 |  | 2.32 | 4 | 4 | 4 | 68.3 ± 8.06 | 91.9 ± 4.35 | >100 |  | 91.60 | 188.56 |  |  | 
5 | CC1OC(O[C@H]2/C=C/C=C/C=C/C=C/CC/C=C/C=C/[C@H](C)[C@@H](O)[C@@H](C)[C@H](C)OC(=O)C[C@H](O)C[C@H](O)C[C@H](O)CC[C@@H](O)[C@H](O)CC3(O)C[C@H](O)[C@@H](C(=O)O)[C@H](C2)O3)C(O)C(NC(=O)[C@H](N)Cc2cccc3ccccc23)C1O (stereo partly shown) [Compound N39] | 8 | 8 |  | 6.05 | 8 | 16 | 16 |  |  |  |  |  |  | >100 | >100 | >100
